In paper PMC10108347, “Heterobifunctional Ligase Recruiters Enable pan-Degradation of Inhibitor of Apoptosis Proteins” (Journal of Medicinal Chemistry, 2023):
pIC50: −log10 of the molar value. “Also recorded” adds a separate entry of the source. Like-named read-outs stand apart in the source and are kept apart here. Each block holds one molecule with its values, some of them ahead of it.

Legend:
NCI-H929 = assay: CellTiter-Glo cell viability assay, NCI-H929; type: cell-based
Protocol: (§1) As TNF-α and related signaling cascades represent crucial factors for the single-agent activity of IAP-targeting compounds,[29],[38],[39],[55] the viability inhibition of sensitive cell lines was evaluated in the presence and absence of this inflammatory stimulus. […] These effects were independent of IAP baseline levels (Figure S16), which is in agreement with the previous studies of IAP antagonists.
(§2) Cells were seeded in 384-well plates with respective treatments, and plates were incubated at 37 °C for 96 h. Viability assays were performed with or without the addition of TNF-α at 1 ng/mL. The cell viability readout was measured using the CellTiter-Glo Luminescent Cell Viability Assay (Promega, Madison, USA) and measured with a Synergy LX Multi-Mode plate reader (BioTek, Vermont, USA). All conditions were normalized to the DMSO-treated control. Data represents the mean ± SD of biological triplicates.

SUDHL4 = assay: CellTiter-Glo cell viability assay, SUDHL4; type: cell-based
Protocol: as §1, §2

SUDHL6 = assay: CellTiter-Glo cell viability assay, SUDHL6; type: cell-based
Protocol: as §1, §2

MOLM13 = assay: CellTiter-Glo cell viability assay, MOLM13; type: cell-based
Protocol: as §1, §2

JJN3 = assay: CellTiter-Glo cell viability assay, JJN3; type: cell-based
Protocol: as §1, §2

[1] = test system: IAPs (cIAP1, cIAP2, XIAP); assay: Immunoblotting of IAPs in MM.1S cells, overall degradation profile, time course and washout; type: cell-based; details: 16 h, western blot, concentration (10 nM to 1 μM)
Protocol: Next, we examined the persistence of IAP degradation in MM.1S cells after a single exposure to 1 μM of 9 and subsequent removal of the compound. […] The reliance on CRL2^VHL was assessed with a neddylation inhibitor MLN4924, which blocks the activity of CRLs (Figure S13A).

DB = assay: CellTiter-Glo cell viability assay, DB; type: cell-based
Protocol: as §1, §2

HEL = assay: CellTiter-Glo cell viability assay, HEL; type: cell-based
Protocol: as §1, §2

[2] = Log D7.4 measurement by chromatographic (fast-gradient HPLC) method; details: pH 7.4
Protocol: The system was calibrated by plotting the retention times of six different drugs (atenolol, metoprolol, labetalol, diltiazem, triphenylene, and permethrin) versus their literature-known log D7.4 in a calibration line (R^2 = 0.99). Subsequently, the mean retention times of the analytes were taken to calculate their log D7.4 values with the aid of the calibration line. At least two independent measurements of each analyte were performed.

RPMI-8826 = assay: CellTiter-Glo cell viability assay, RPMI-8826; type: cell-based
Protocol: as §1, §2

K562 = assay: CellTiter-Glo cell viability assay, K562; type: cell-based
Protocol: as §1, §2

cIAP2 = cIAP2 (Homo sapiens, UniProt Q13489); assay: Immunoblotting (western blot) quantification of cIAP2 levels in MM.1S cells; details: MM.1S cells
Protocol: To evaluate the capability of our panel of hetero-PROTACs for E3 ligase degradation, VHL19, VHL30, CRBN, cIAP1, cIAP2, and XIAP levels were quantified by western blot analyses. […] SDS-PAGE was performed, and proteins were then transferred onto PVDF membranes. Blotted membranes were blocked with 5% milk in Tris-buffered saline/Tween20 (TBST). Primary antibodies were diluted in 5% BSA in TBST, and incubations were performed overnight at 4 °C. Secondary HRP-conjugated antibodies diluted in 5% milk were incubated for 1 h at room temperature. Detection of proteins on PVDF was carried out using the WesternBright ECL HRP substrate or the WesternBright Sirius HRP substrate (Advansta, San Jose, USA) and imaged with LAS 4000× (Fujifilm). Membranes were subjected to 10 min incubation with Restore Western Blot Stripping Buffer (Thermo Fisher Scientific, Waltham, USA), followed by TBST washes. After brief re-activation with methanol, the membranes were blocked, and further probing of proteins was carried out.
Quantification of blots was performed using ImageJ software (National Institutes of Health).

XIAP = XIAP (Homo sapiens, UniProt P98170); assay: Immunoblotting (western blot) quantification of XIAP levels in MM.1S cells; details: MM.1S cells, 16 h, western blot, 0.1 or 1 μM
[3] = Homo sapiens, SI csv, head prints only the cell line, no quantity or unit, values parallel Table 1/S8, read-out: NCI-H929
[4] = Homo sapiens, SU-DHL-4, SI csv, head prints only the cell line, no quantity or unit, values parallel Table 1/S8, read-out: SUDHL4
[5] = Homo sapiens, JJN-3, SI csv, head prints only the cell line, no quantity or unit, values parallel Table 1/S8, read-out: JJN3
[6] = MM cell line, 96 h, TNFα-challenged, read-out: IC50 cell viability RPMI-8826
[7] = SI csv, head prints only the cell line, no quantity or unit, values parallel Table 1/S8, read-out: RPMI-8826
[8] = Homo sapiens, SI csv, head prints only the cell line, no quantity or unit, values parallel Table 1/S8, read-out: K562

Chain of cIAP2 (Q13489 whole entry): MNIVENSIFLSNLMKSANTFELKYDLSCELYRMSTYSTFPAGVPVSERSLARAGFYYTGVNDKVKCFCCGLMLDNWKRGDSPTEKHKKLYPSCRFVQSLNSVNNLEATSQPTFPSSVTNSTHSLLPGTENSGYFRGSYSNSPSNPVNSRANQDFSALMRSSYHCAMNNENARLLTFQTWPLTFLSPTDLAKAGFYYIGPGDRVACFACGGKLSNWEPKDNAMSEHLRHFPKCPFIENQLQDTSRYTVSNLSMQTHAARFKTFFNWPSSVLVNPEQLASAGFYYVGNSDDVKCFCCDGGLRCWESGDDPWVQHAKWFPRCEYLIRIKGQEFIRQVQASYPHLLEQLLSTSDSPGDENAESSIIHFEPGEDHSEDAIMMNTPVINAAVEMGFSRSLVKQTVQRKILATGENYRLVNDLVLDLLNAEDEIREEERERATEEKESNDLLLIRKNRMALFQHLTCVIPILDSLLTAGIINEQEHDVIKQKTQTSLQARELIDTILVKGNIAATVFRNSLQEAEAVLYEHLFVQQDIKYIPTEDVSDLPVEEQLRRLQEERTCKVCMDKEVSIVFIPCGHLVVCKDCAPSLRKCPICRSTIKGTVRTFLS
Chain of XIAP (P98170 whole entry): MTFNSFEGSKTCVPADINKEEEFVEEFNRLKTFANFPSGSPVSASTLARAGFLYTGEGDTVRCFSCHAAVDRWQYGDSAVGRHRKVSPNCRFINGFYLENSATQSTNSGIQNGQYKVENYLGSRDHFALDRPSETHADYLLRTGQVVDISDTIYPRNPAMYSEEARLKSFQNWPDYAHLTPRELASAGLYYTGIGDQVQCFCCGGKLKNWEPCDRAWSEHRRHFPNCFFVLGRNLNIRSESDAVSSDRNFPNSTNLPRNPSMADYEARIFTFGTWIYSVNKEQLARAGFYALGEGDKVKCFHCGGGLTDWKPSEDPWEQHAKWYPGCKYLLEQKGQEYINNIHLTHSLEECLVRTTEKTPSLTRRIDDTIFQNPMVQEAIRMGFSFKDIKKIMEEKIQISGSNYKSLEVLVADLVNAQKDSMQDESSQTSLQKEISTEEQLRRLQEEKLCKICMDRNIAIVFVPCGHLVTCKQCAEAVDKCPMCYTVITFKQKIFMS

- pIC50 (NCI-H929; Homo sapiens, NCI-H929, MM cell line, 96 h, TNFα-challenged, read-out: IC50 cell viability NCI-H929): < 5.30
- pIC50 (NCI-H929; [3]): < 5.00
- pIC50 (SUDHL4; Homo sapiens, SU-DHL-4, DLBCL cell line, 96 h, TNFα-challenged, read-out: IC50 cell viability SUDHL4): < 5.30
- pIC50 (SUDHL4; [4]): < 5.00
- pIC50 (SUDHL6; Homo sapiens, SU-DHL-6, DLBCL cell line, 96 h, TNFα-challenged, read-out: IC50 cell viability SUDHL6): 6.77
- pIC50 (MOLM13; Homo sapiens, MOLM-13, AML cell line, 96 h, TNFα-challenged, read-out: IC50 cell viability MOLM13): < 6.00
- chromatographic logD [2]: 3.3
- pIC50 (K562; Homo sapiens, K562, AML cell line, 96 h, TNFα-challenged, read-out: IC50 cell viability K562): < 5.30
- pIC50 (K562; [8]): < 5.00
Molecule: CN[C@@H](C)C(=O)N[C@H](C(=O)N1C[C@@H](Oc2cccc(OCCCCC(=O)N[C@H](C(=O)N3C[C@@H](O)C[C@H]3C(=O)NCc3ccc(-c4scnc4C)cc3)C(C)(C)C)c2)C[C@H]1C(=O)N[C@@H]1CCCc2ccccc21)C1CCCCC1 [PROTAC 11, (2S,4S)-1-((S)-2-Cyclohexyl-2-((S)-2-(methylamino)propanamido)acetyl)-4-(3-((5-(((S)-1-((2S,4S)-4-hydroxy-2-((4-(4-methylthiazol-5-yl)benzyl)carbamoyl)pyrrolidin-1-yl)-3,3-dimethyl-1-oxobutan-2-yl)amino)-5-oxopentyl)oxy)phenoxy)-N-((R)-1,2,3,4-tetrahydronaphthalen-1-yl)pyrrolidine-2-carboxamide]
- pIC50 (JJN3; Homo sapiens, JJN-3, MM cell line, 96 h, TNFα-challenged, read-out: IC50 cell viability JJN3): < 5.30
- pIC50 (JJN3; [5]): < 5.00
- IAP degradation profile (in words) [1]: induce only cIAP1 degradation; also recorded: only induced cIAP1 degradation
- pIC50 (DB; Homo sapiens, DB, DLBCL cell line, 96 h, TNFα-challenged, read-out: IC50 cell viability DB): < 5.30
- pIC50 (HEL; Homo sapiens, HEL, AML cell line, 96 h, TNFα-challenged, read-out: IC50 cell viability HEL): < 5.00
- pIC50 (RPMI-8826; [6]): < 5.30
- pIC50 (RPMI-8826; [7]): < 5.00

- pIC50 (NCI-H929; [3]): 5.70
- remaining protein cIAP2 (cIAP2; 16 h, 1 μM): 32%
- pIC50 (SUDHL4; [4]): 6.00
- pIC50 (SUDHL6; Homo sapiens, SU-DHL-6, SI csv, head prints only the cell line, no quantity or unit, values parallel Table 1/S8, read-out: SUDHL6): 6.36
- pIC50 (MOLM13; Homo sapiens, MOLM-13, SI csv, head prints only the cell line, no quantity or unit, values parallel Table 1/S8, read-out: MOLM13): 6.20
- chromatographic logD [2]: 6
- pIC50 (K562; [8]): 6.08
Molecule: CN[C@@H](C)C(=O)N[C@H](C(=O)N1C[C@@H](Oc2cccc(OCCOCCCCCCOCCCCCCNc3cccc4c3C(=O)N(C3CCC(=O)N(C)C3=O)C4=O)c2)C[C@H]1C(=O)N[C@@H]1CCCc2ccccc21)C1CCCCC1 (stereo partly drawn) [PROTAC 28, (2S,4S)-1-((S)-2-Cyclohexyl-2-((S)-2-(methylamino)propanamido)acetyl)-4-(3-(2-((6-((6-((2-(1-methyl-2,6-dioxopiperidin-3-yl)-1,3-dioxoisoindolin-4-yl)amino)hexyl)oxy)hexyl)oxy)ethoxy)phenoxy)-N-((R)-1,2,3,4-tetrahydronaphthalen-1-yl)pyrrolidine-2-carboxamide]
- pIC50 (JJN3; [5]): 6.05
- XIAP degradation (in words) (XIAP): failed to degrade XIAP at 1 μM concentration; also recorded: only marginally degrades XIAP
- pIC50 (DB; Homo sapiens, SI csv, head prints only the cell line, no quantity or unit, values parallel Table 1/S8, read-out: DB): 6.24
- pIC50 (HEL; Homo sapiens, SI csv, head prints only the cell line, no quantity or unit, values parallel Table 1/S8, read-out: HEL): 6.11
- pIC50 (RPMI-8826; [7]): 6.00

Molecule: VH298 [reference compound]
- pIC50 (NCI-H929; MM cell line, 96 h, TNFα-challenged, read-out: IC50 cell viability NCI-H929): < 5.00
- %remaining protein cIAP2 (cIAP2; 16 h treatment at 0.1 μM, normalized to loading control and DMSO): 81%
- pIC50 (SUDHL4; DLBCL cell line, 96 h, TNFα-challenged, read-out: IC50 cell viability SUDHL4): < 5.00
- pIC50 (SUDHL6; DLBCL cell line, 96 h, TNFα-challenged, read-out: IC50 cell viability SUDHL6): < 5.00
- pIC50 (MOLM13; AML cell line, 96 h, TNFα-challenged, read-out: IC50 cell viability MOLM13): < 5.00
- pIC50 (JJN3; MM cell line, 96 h, TNFα-challenged, read-out: IC50 cell viability JJN3): < 5.00
- IAP degradation profile (in words) [1]: did not affect the levels of IAPs; also recorded: has no effects on the investigated proteins
- pIC50 (DB; DLBCL cell line, 96 h, TNFα-challenged, read-out: IC50 cell viability DB): < 5.00
- pIC50 (HEL; AML cell line, 96 h, TNFα-challenged, read-out: IC50 cell viability HEL): < 5.00
- pIC50 (RPMI-8826; [6]): < 5.00
- pIC50 (K562; AML cell line, 96 h, TNFα-challenged, read-out: IC50 cell viability K562): < 5.00
